Measurements from patent EP0919233A1, “THERAPEUTIC AGENT FOR KIDNEY DISEASES” (KYOWA HAKKO KOGYO KABUSHIKI KAISHA, priority 1996, dated 1997).

Tests used:
Assay type in all cases: in vivo
dd-strain male mice = experiment: Acute Toxicity Test (minimum lethal dose); settings: three mice per group, mortality observed seven days after administration
Description: A test compound was orally or intraperitoneally administered to groups of dd-strain male mice weighing 20 ± 1 g, each group consisting of three mice. […] The MLD was >1000 mg/kg for oral administration of Compound 10 and was >100 mg/kg for intraperitoneal administration of Compound 10.

Masugi Nephritis = experiment: Effect on Increase of Albumin Excretion in Masugi Nephritis; settings: ddY-strain male mice, 1 mg/kg orally once a day from the previous immunization, 24 hr urine four weeks after second NT injection, mean ± standard error, n=11; control group 134 ± 9, normal group 85 ± 5
Description: Mouse nephrotoxin (hereinafter referred to as NT) was prepared according to the method of Ito, et al. [The Japanese Journal of Nephrology, 23, 25-36 (1981)]. That is, glomerular basement membrane (hereinafter referred to as GBM) was isolated from mouse kidney and digested with trypsin (Sigma). The digested GBM was subjected to ultracentrifugation under cooling, and the supernatant was dialyzed against distilled water, followed by lyophilization. The lyophile product was intracutaneously injected as an antigen into four foot pads of a rabbit together with Freund's complete adjuvant (Iatron; hereinafter referred to as FCA) once a week for 4 weeks for immunization. The whole blood was drawn from the immunized rabbit, and serum was separated and inactivated at 56°C for 30 minutes to prepare NT.
In this test, ddY-strain male mice weighing 29-36 g were used. For previous immunization, 0.25 ml of an FCA emulsion containing 0.25 mg of rabbit immunoglobulin-globulin (IgG, Sigma) was intraperitoneally injected into mice. Nephritis was induced by intravenous injection of 0.075 ml of NT through the tail vein 4 and 11 days after the previous immunization. […] The supernatant was analyzed for urinary albumin content using an autoanalyzer (Olympus). […]
The results are shown in Table 5 as the means ± standard error of each group consisting of 11 mice. Statistical significance was evaluated by Student's t-test.

Diabetic Nephropathy = experiment: Effect on Increase of Albumin Excretion in Diabetic Nephropathy (streptozotocin-induced); settings: STZ-diabetic ddY-strain male mice, 24 hr urine twelve weeks after STZ, mean ± standard error, control group 333 ± 30, normal group 80 ± 3
Description: In this test, ddY-strain male mice weighing 25-28 g were used. Diabetes was induced according to the method of Tsuchida, et al. [Jin To Toseki (Kidney and Dialysis), 31, 363-366 (1991)]. That is, streptozotocin (5 mg/ml, Sigma; hereinafter referred to as STZ) dissolved in 0.05 M citrate buffer was intravenously injected into mice through the tail vein at a dose of 10 ml/kg. On the fourth day after the STZ administration, 30 µl of blood was collected from the tail vein of the mice and the blood glucose was determined using Glutestsensor (Sanwa Kagaku). The animals were divided into three groups based on the blood glucose level. Twelve weeks after the STZ administration, each mouse was put into a metabolic cage and received oral administration of 0.5 ml/10 g of distilled water twice at an interval of 12 hours. Urine was collected for 24 hours, and after measurement of the volume, the urine was centrifuged under cooling (3000 rpm, 4°C) for 5 minutes. The supernatant was analyzed for urinary albumin content using an autoanalyzer (Olympus). A test compound was orally administered once a day for 11 weeks, starting on the fifth day after the STZ administration. […] Statistical significance was evaluated by Aspin-Welch's test for the difference between the control group and the normal group and by Steel's test for the difference between the control group and the test compound-administered group.

For `CCOc1cc2nc(N3CCOCC3)nc(N3CCC(n4c(=O)c5cc(C)ccc5n(C)c4=O)CC3)c2cc1OCC.Cl` [Compound 10, 3-[1-(6,7-Diethoxy-2-morpholino-4-quinazolinyl)-4-piperidinyl]-1,2,3,4-tetrahydro-1,6-dimethyl-2,4-dioxoquinazoline hydrochloride], the “minimum lethal dose (MLD)” value (dd-strain male mice; intraperitoneal administration) was greater than 100 mg/kg, the “minimum lethal dose (MLD)” value (dd-strain male mice; oral administration) was greater than 1000 mg/kg and the “Urinary Albumin Content” value (Masugi Nephritis) was 96 ± 7 mg/kg/24 hr. The “Urinary Albumin Content” value (Diabetic Nephropathy; 1 mg/kg orally once a day for 11 weeks) was 244 ± 16 mg/kg/24 hr and the “Urinary Albumin Content” value (Diabetic Nephropathy; 10 mg/kg orally once a day for 11 weeks) was 200 ± 13 mg/kg/24 hr.
